Data on 14 compounds can be found in patent publication US20080319175A1, “Transthyretin Stabilization” (The Scripps Research Institute, priority 2004, published 2008).

“Also recorded” adds a separate entry of the source.

Data set [1] concerns the target T1, TTR in human blood plasma (Homo sapiens, UniProt P02766).
T1 construct: from tissue; host or cells: human blood plasma
The data set can be described thus: blood plasma TTR binding selectivity, antibody capture method. The following applies: inhibitor 10.8 μM. On the procedure: Inhibitor binding selectivity to TTR in human blood plasma was assessed using a previously established antibody capture method (Purkey, H. E.; et al. Proc. Natl. Acad. Sci. USA 2001, 98, 5566-5571). In this evaluation, inhibitors (10.8 μM, ˜2-3× the natural concentration of TTR) are incubated in human blood plasma for 24 h at 37° C. Quenched sepharose resin is then added to the plasma to remove any small molecules that would bind to the resin as opposed to TTR. TTR and any TTR-bound small molecule is then immunocaptured using a polyclonal TTR antibody covalently attached to sepharose resin. After washing the resin (5×10 min washes), the antibody-TTR complex is dissociated at high pH and analyzed by RP-HPLC. The relative stoichiometry between TTR and inhibitor is then calculated from their HPLC peak areas using standard curves.
(§1) The procedures used for bacterial expression of TTR (Lai, Z.; et al. Biochemistry 1996, 35, 6470-6482), the stagnant fibril formation assay (Colon, W.; Kelly, J. W. Biochemistry 1992, 31, 8654-8660; Lai, Z.; et al. Biochemistry 1996, 35, 6470-6482), the blood plasma binding selectivity assay (Purkey, H. E.; et al. Proc. Natl. Acad. Sci. USA 2001, 98, 5566-5571), and analytical ultracentrifugation (Lashuel, H. A.; et al. Biochemistry 1998, 37, 17851-17864) have all been described in detail previously.
(§2) FIG. 3 is a chart showing a summary of dibenzofuran-based amyloid inhibition activity ([…]) against WT-TTR ([…]) fibril formation (pH 4.4, 72 h) and binding stoichiometry to TTR in human blood plasma. % Fibril formation (f.f.) values in the middle column represent the extent of f.f., and thus inhibitor efficacy, relative to WT-TTR f.f. in the absence of inhibitor (assigned to be 100%). Complete inhibition is equivalent to 0% f.f. The right column depicts the observed stoichiometry of inhibitor (dosed at […], ˜2-3× the concentration of plasma TTR) bound to TTR in blood plasma as determined using the antibody capture method.

Data set [2] can be described thus: precipitation of small molecule under acid-mediated amyloidogenic conditions in the absence of TTR. Type of data set: physicochemical. The note with it: 3.6 μM, pH 4.4, 37° C., 72 h. Here is the method:
(§3) TTR amyloid inhibition efficacy was probed using a stagnant fibril formation assay described previously, wherein partial denaturation was triggered by acidification (pH 4.4, 37° C.) (Colon, W.; Kelly, J. W. Biochemistry 1992, 31, 8654-8660). Briefly, a test compound (7.2 or 3.6 μM) is incubated with TTR (3.6 μM) for 30 min in pH 7 buffer. Amyloidogenesis is then initiated by lowering to pH 4.4, where maximal fibril formation is observed with WT-TTR after 72 h (37° C.). The turbidity in the presence of a potential inhibitor (Ttest) is compared to that of a solution lacking a test compound (Tcontrol). […] From experience we know that excellent inhibitors allow <10% fibril formation at a small molecule concentration of 7.2 μM and <40% fibril formation at a concentration equal to that of WT-TTR (3.6 μM) (Hammarstrom, P.; et al. Science 2003, 299, 713-716; Klabunde, T.; et al. Nature Struct. Biol. 2000, 7, 312-321; Razavi, H.; et al. Angew Chem 2003, 42, 2758-2761; Miroy, G. J.; et al. Proc. Natl. Acad. Sci. USA 1996, 93, 15051-15056; Peterson, S. A.; et al. Proc. Natl. Acad. Sci. USA 1998, 95, 12956-12960; Baures, P. W.; et al. Bioorg. Med. Chem. 1998, 6, 1389-1401; Baures, P. W.; et al. Bioorg. Med. Chem. 1999, 7, 1339-1347; Petrassi, H. M.; et al. J. Am. Chem. Soc. 2000, 122, 2178-2192; McCammon, M. G.; et al. Structure 2002, 10, 851-863; Oza, V. B.; et al. J. Med. Chem. 2002, 45, 321-332; Sacchettini, J. C.; et al. Nature Rev. Drug Disc. 2002, 1, 267-275; Green, N. S.; et al. J. Am. Chem. Soc. 2003, 125, 13404-13414; Adamski-Werner, S. L.; et al. J. Med. Chem. 2004, 47, 355-374; Miller Sean, R.; et al. Lab. Inv. 2004, 84, 545-552). […] Therefore, when both the ligand and TTR are at equal concentrations, a population of TTR•I, TTR•I2 and unliganded TTR is observed, dictated by the dissociation constants. It is now established by other studies that inhibitor occupancy of only one of the two TTR binding sites is sufficient to stabilize the entire tetramer against amyloidogenesis (Wiseman, R. L.; et al. J. Am. Chem. Soc. 2005, in press). This is further supported by the observation herein that twenty-six of these dibenzofurans are excellent TTR amyloidogenesis inhibitors (<40% fibril formation) at a concentration equal to that of TTR (3.6 μM each, FIG. 3).

Another data set concerns the target T2, WT-TTR (Homo sapiens, UniProt P02766).
T2 construct: made in house
The data set can be described thus: stagnant acid-mediated TTR fibril formation assay (turbidity). The note with it: WT-TTR 3.6 μM; for inhibitor potency against fibril formation (in words): inhibitor 3.6 μM, pH 4.4, 72 h. Type of data set: biochemical. On the procedure: as §3, §1
FIG. 2 is a table highlighting the concentration dependent acid-substituted dibenzofuran activity against WT-TTR (3.6 μM) amyloid fibril formation (f.f.) at pH 4.4 (72 h). Values represent the extent of f.f. and thus inhibitor efficacy relative to WT-TTR fibril formation in the absence of inhibitor (assigned to be 100%): complete inhibition is equivalent to 0% f.f.
as §2
FIG. 6 is a chart showing dibenzofuran-based inhibitor activity (7.2 μM) against WT-TTR (3.6 μM) amyloid fibril formation (f.f.) at pH 4.4 (72 h). […]

As for `O=C(O)c1cccc2c1oc1c(C(=O)O)cccc12` [Compound 1, dibenzofuran-4,6-dicarboxylic acid, reference compound], in data set [1], the “binding selectivity to TTR in human blood plasma (in words)” value (shortened to “binding selectivity to TTR”) is “no measurable binding selectivity”.

Consider `O=C(O)c1cccc2c1oc1c(C(=O)O)ccc(Nc3cccc(C(F)(F)F)c3)c12` [Compound 26], for which the “precipitation of compound in the absence of TTR” value (from here on “precipitation of compound”) in data set [2] is listed as “no measurable precipitation”. With `O=C(O)c1cccc2c1oc1c(C(=O)O)ccc(Nc3cccc(Cl)c3)c12` [Compound 27], in data set [2], the “precipitation of compound” value is “no measurable precipitation”. Consider `O=C(O)c1cccc2c1oc1c(C(=O)O)ccc(Nc3cc(Cl)cc(Cl)c3)c12` [Compound 30], for which, in data set [2], the “precipitation of compound” value was “no measurable precipitation”. With `O=C(O)c1cccc2c1oc1c(C(=O)O)ccc(Nc3cc(C(F)(F)F)cc(C(F)(F)F)c3)c12` [Compound 31], the “binding selectivity to TTR” value in data set [1] is “all but two (31 and 35) exhibit dramatically increased binding selectivity”. Turning to `O=C(O)c1cccc(Nc2ccc(C(=O)O)c3oc4c(C(=O)O)cccc4c23)c1` [Compound 33], the “inhibitor potency against fibril formation (in words)” value (shortened to “inhibitor potency”) at WT-TTR is recorded as “amongst the most potent”. Moreover, in data set [1], the “binding selectivity to TTR” value is given as “modest”. In the case of `O=C(O)c1cc(Nc2ccc(C(=O)O)c3oc4c(C(=O)O)cccc4c23)cc(C(=O)O)c1` [Compound 34], the “inhibitor potency” value against WT-TTR is reported as “all the inhibitors (except 34) display increased potency relative to the parent compound (1)”. For the same compound, on WT-TTR (inhibitor 7.2 μM, pH 4.4, 37° C., 72 h), the “inhibition of WT-TTR fibril formation at 7.2 μM inhibitor (in words)” value is given as “not as effective; also recorded: all but one (34) completely inhibit fibril formation”. As for `O=C(O)c1ccc(Nc2ccc(C(=O)O)c3oc4c(C(=O)O)cccc4c23)cc1` [Compound 35], the “binding selectivity to TTR” value in data set [1] is “all but two (31 and 35) exhibit dramatically increased binding selectivity”.

In the case of `O=C(O)c1cccc2c1oc1c(C(=O)O)ccc(Nc3ccccc3F)c12` [Compound 36], the “inhibitor potency” value against WT-TTR is recorded as “most potent”. As to `O=C(O)c1cccc2c1oc1c(C(=O)O)ccc(Oc3cccc(C(F)(F)F)c3)c12` [Compound 45], the “precipitation of compound” value in data set [2] is given as “no measurable precipitation”. On the same count and under the same terms, next, `O=C(O)c1cccc2c1oc1c(C(=O)O)ccc(-c3cc(F)cc(F)c3)c12` [Compound 62]: “no measurable precipitation”.

Regarding `O=C(O)c1cccc2c1oc1c(C(=O)O)ccc(-c3cc(Cl)cc(Cl)c3)c12` [Compound 63], at WT-TTR, the “inhibitor potency” value is reported as “most potent”. The same measure, in the same setting: the value for `O=C(O)c1cccc2c1oc1c(C(=O)O)ccc(-c3ccccc3F)c12` [Compound 67] was “most potent”. On to `O=C(O)c1cccc(-c2ccc(C(=O)O)c3oc4c(C(=O)O)cccc4c23)c1` [Compound 69], for which the “inhibitor potency” value against WT-TTR is given as “amongst the most potent”. The “binding selectivity to TTR” value in data set [1] is on record as “modest”.
